Patent US10792265B2, “Methods of treating or preventing fibrotic lung diseases” (YALE UNIVERSITY, priority 2014, dated 2020)
“Also recorded” adds a separate entry of the source.

Key:
[1] = test system: bleomycin-induced fibrosis in mice; test: Bleomycin-induced lung fibrosis model in mice (hydroxyproline, collagen, qRT-PCR of fibrotic genes, Masson trichrome); assay type: in vivo
[2] = T3 and TSH level in the sera of treated bleomycin mice (ELISA); assay type: in vivo
[3] = test system: bleomycin-induced mortality; test: Bleomycin-induced mortality by Kaplan-Meier survival curve analysis; assay type: in vivo, mice; conditions: bleomycin 4.5 U/kg intratracheally day 0; T3 40 μg/kg nebulized and inhaled every other day since day 7 (FIG. 5F)
Protocol: 40 μg/kg of T3 was nebulized and inhaled day 10, 12, 14, 16 after bleomycin treatment at dose of 1.5 U/kg, Saline as control. Mice were sacrificed at day 21. […] FIG. 5B: Col1a1 mRNA expression was detected by QRT-PCR (n=8 in each group). FIG. 5C: Col3a1 mRNA expression was detected by QRT-PCR. […] FIG. 5F: Bleomycin-induced mortality by Kaplan-Meier survival curve analysis. 4.5 U/kg of bleomycin was delivered intratracheally at day 0, 40 μg/kg of T3 was nebulized and inhaled every other day since day 7, saline treatment as control group.

[4] = test system: alveolar epithelial cells isolated from bleomycin injured lungs; test: Gene expression analysis in alveolar epithelial cells isolated from bleomycin injured lungs before and after T3 aerosolized delivery; assay type: in vivo
Excerpt: Experiments were run to delineate a potential mechanistic pathway through which thyroid hormones exert their protective role in the development and progression of experimental lung fibrosis. […] Similar experiments were run in A549 lung adenocarcinoma cell lines before and after thyroid hormone administration.

[5] = treatment injected at day 3 after bleomycin, sacrificed day 14 (FIG. 4A)
[6] = treatment injected at day 7 after bleomycin, sacrificed day 14 (FIG. 4C)

Structure (SMILES)	Bleomycin-induced lung fibrosis (overall severity) ([1]; bleomycin 1.5 U/Kg intratracheally, PTU 100 mg/kg intraperitoneally at day 3 and day 7, sacrificed day 14)	Hydroxyproline content in the right lungs ([1]; bleomycin 1.5 U/Kg, PTU 100 mg/kg intraperitoneally day 3 and day 7, day 14 (FIG. 3A))	Collagen content in the right lungs ([1]; bleomycin 1.5 U/Kg, PTU 100 mg/kg intraperitoneally day 3 and day 7, day 14 (FIG. 3B))	Hydroxyproline measurements [1, 5]	Hydroxyproline measurements [1, 6]	Bleomycin-induced fibrosis (overall) ([1]; T3 40 μg/kg nebulized and inhaled day 10, 12, 14, 16 after bleomycin 1.5 U/kg, sacrificed day 21)	Hydroxyproline content ([1]; T3 inhalation 40 μg/kg day 10, 12, 14, 16 after bleomycin 1.5 U/kg, day 21 (FIG. 5A))	T3 level in the sera by ELISA ([2]; after T3 inhalation 40 μg/kg in bleomycin mice, n=10 (FIG. 5D))	Survival / bleomycin-induced mortality (Kaplan-Meier) [3]	Gene expression in alveolar epithelial cells [4]	Pulmonary fibrosis / fibrotic process (fibrotic markers and structural changes) ([1]; T4 after bleomycin instillation, intraperitoneal, 40 mg/kg or 50 mg/kg, sacrificed day 14)	Gene expressions of Col1a1, Col3a1, S100a4 and Acta2 (QRT-PCR) ([1]; T4 injected at day 3 after bleomycin, n=8, p<0.05 (FIG. 4B))	Gene expressions of Col1a1, Col3a1, S100a4 and Acta2 (QRT-PCR) ([1]; T4 injected at day 7 after bleomycin, n=8, p<0.05 (FIG. 4D))	Fibrotic and inflammatory response to bleomycin, histological examination by masson trichrome staining ([1]; T4 treatment at either day 3 or day 7 (FIG. 4G))	Circulating levels of T3 ([2]; after T4 systemic administration in bleomycin mice, n=10, p<0.05 (FIG. 4E))
CCCc1cc(=O)[nH]c(=S)[nH]1 [PTU, propylthiouracil]	more severe bleomycin-induced lung fibrosis; also recorded: aggravates fibrosis	significant elevation	significant elevation	significant increase	significant increase	–	–	–	–	–	–	–	–	–	–
N[C@@H](Cc1cc(I)c(Oc2ccc(O)c(I)c2)c(I)c1)C(=O)O [T3, (S)-2-amino-3-[4-(4-hydroxy-3-iodophenoxy)-3,5-diiodophenyl]propanoic acid]	–	–	–	–	–	blunts bleomycin-induced fibrosis	statistically significant blunting; also recorded: declines hydroxyproline content	does not affect the level of T3	significant increase in survival; also recorded: reduces mortality	upregulation of several anti-apoptotic genes	–	–	–	–	–
N[C@@H](Cc1cc(I)c(Oc2cc(I)c(O)c(I)c2)c(I)c1)C(=O)O [T4, (S)-2-amino-3-[4-(4-hydroxy-3,5-diiodophenoxy)-3,5-diiodophenyl]propanoic acid]	–	–	–	no statistically significant reduction; also recorded: no statistical difference in the T4 treated group from the saline group	no statistically significant reduction; also recorded: no statistical difference in the T4 treated group from the saline group	–	–	–	–	–	significant attenuation of the fibrotic process; also recorded: attenuates the pulmonary fibrosis	markedly suppresses	significantly suppresses	attenuated	statistically significant increase
